In experiment [1] the test system is mAb specific for HSV gG2. As to the kind of experiment: gG2 mAb binding to fusion peptide on solid phase. The text has this:
(§1) ID. […] The specificity exchangers provided in SEQ. ID. […] Similarly, the specificity exchangers provided in SEQ. ID.

The target of experiment [2] is T1, HBcAg (Hepatitis B virus genotype D subtype ayw, UniProt P03146). Here is the method: To evaluate the efficacy of the specificity exchangers described above, several binding assays using a mAb specific for HSV gG2 were conducted. In one assay, the various specificity exchangers were coated onto microtiterplates and were bound with the mAb specific for HSV gG2. […] ID. […] In another assay, HBcAg was coated onto microtiter plates, specificity exchanger was added (20 μg/well), and the binding of the mAb specific for HSV gG2 was determined. […] ID. […] In another binding assay, HBeAg was coated onto microtiter plates, specificity exchanger was added (20 μg/well), and the binding of the mAb specific for HSV gG2 was determined. […] ID. […] The characterization assays used to evaluate binding partners can also be used and/or modified for the analysis of the specificity exchangers.
T1 sequence (P03146 whole entry): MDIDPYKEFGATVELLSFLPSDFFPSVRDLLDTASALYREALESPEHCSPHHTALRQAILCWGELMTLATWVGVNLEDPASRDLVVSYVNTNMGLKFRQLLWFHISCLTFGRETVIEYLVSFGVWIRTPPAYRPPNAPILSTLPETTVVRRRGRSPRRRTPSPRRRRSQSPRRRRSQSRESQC

In experiment [3] the target is T2, HBeAg (Hepatitis B virus genotype D subtype ayw, UniProt P0C573).
T2 construct: containing nine residues of pre-core and the 150 first residues of HBcAg; made in house
T2 sequence (P0C573 21-179): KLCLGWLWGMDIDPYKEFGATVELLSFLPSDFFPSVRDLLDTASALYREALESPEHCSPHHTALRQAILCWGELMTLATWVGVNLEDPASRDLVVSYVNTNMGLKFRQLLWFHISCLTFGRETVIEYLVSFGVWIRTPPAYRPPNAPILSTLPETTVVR
As to the kind of experiment: Redirection of HSV gG2 mAb to HBeAg on solid phase by fusion peptide in solution. In kind it is binding.
From the text: as §1

The target in experiment [4] is T1, HBcAg. The method, then: Accordingly, the assay was conducted by mixing the antibody to be tested with the appropriate antigen and allowing binding to occur overnight. Subsequently, rabbit complement, which is consumed if the antibody binds the antigen and the complement, was added. To determine the amount of residual complement in the mixture, sheep erythrocytes and an antibody to sheep erythrocytes was added.
This is another data set of the same source.

Experiment [5] deals with T3, serum HBeAg (Hepatitis B virus genotype D subtype ayw, UniProt P0C573).
T3 construct: two HBeAg-transgenic mice; from tissue; host or cells: serum of HBeAg-transgenic mice (from Dr. David R Milich, The Scripps Research Institute)
T3 sequence (P0C573 20-183): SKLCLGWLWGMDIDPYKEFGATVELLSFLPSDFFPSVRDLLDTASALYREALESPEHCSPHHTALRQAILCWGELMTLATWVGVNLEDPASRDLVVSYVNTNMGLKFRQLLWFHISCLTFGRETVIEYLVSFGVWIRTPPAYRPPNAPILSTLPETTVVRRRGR
Put plainly: In vivo aggregation of serum HBeAg in HBeAg-transgenic mice. Conditions: second group of experiments, i.p., final volume 0.5 ml. Here is the method: By using an animal model of HBV infection, the therapeutic efficacy of a specificity exchanger directed to HBV was determined. In a first group of experiments, two HBeAg-transgenic mice (obtained from Dr. David R Milich, The Scripps Research Institute, La Jolla, Calif.) were injected ip. with 500 μl of undiluted hybridoma supernatants. The mice were then bled on day zero, two, six and nine post-injection. Sera were then tested for the change in serum HBeAg levels as determined by EIA (Sorin Biomedica, Saluggia, Italy).

The subject of experiment [6] is B cell - mediated antigen presentation of HBcAg to experienced T cells. Put plainly: Inhibition of B cell-mediated antigen presentation of HBcAg to experienced T cells. In kind it is cell-based, Balb/c mice. The method, then: A characterization assay that was used to evaluate the ability of a binding partner to modulate a host immune system response to HBV was conducted as follows. Groups of Balb/c mice were immunized subcutaneously with 20 μg HBcAg. Ten days later, draining lymph nodes were harvested and experienced CD4^+ T cells were purified using anti-CD4 coated magnetic beads (Dynal A S, Oslo, Norway) according to the manufacturers instructions. Naïve B cells were obtained from syngeneic mice, which had not been immunized. These B cells were used as antigen presenting cells in the characterization assay.
The ability of the different mAbs and peptides to block B cell uptake and antigen presentation of HBcAg-peptides to HBcAg-specific CD4+ T cells was then tested in vitro. The cell populations were mixed at a B/T cell ratio of 1:5 and added at a final concentration of approximately 2.5×10^5 to 5.0×10^5 cells per well in a 96 well microplate. Approximately, 20 μg of HBcAg was preincubated with the binding partner. The binding partner mixtures were then added to the cells and the plates were incubated for 26 to 96 hours at 37° C. The effect of the binding partners on T cell proliferation was determined by monitoring [^3H] thymidine incorporation.

The target in experiment [7] is T1, HBcAg. Particulars: for Binding to HBcAg (in words): support-bound peptides. The source says: (§2) One approach to rational drug design involves sequential amino acid deletion of a known binding partner starting from either the amino or carboxy termini. Amino-terminal deletions of the binding partners of SEQ. ID. Nos. 5 and 17 were made and these peptide fragments were joined to a support and analyzed for the ability to bind HBcAg. […] ID. […] The amino-terminal deletions of the peptide of SEQ. ID. […] The amino-terminal deletion products of the peptide of SEQ. ID. […] ID.
To determine whether a candidate binding partner bound to HBcAg and/or HbeAg, a multimeric support-based binding assay was performed. Accordingly, synthetic peptides corresponding to the VH and VL domains of the sequenced mAbs were passively adsorbed to 96 well microplates in serial dilutions starting at 200 μg/ml. The peptide coated plates were then incubated with HBcAg and HBeAg serially diluted in PBS-GT. The amount of HBcAg and HBeAg bound by the peptides was then detected using a mAb directed to an epitope common to HBcAg and HBeAg (See Sällberg et al., J General Virology 74:1335-1340 (1993), herein expressly incorportaed by reference in its entirety) diluted 1:3000 in PBS-GT. The quantity of bound mAb was determined by addition by peroxidase labeled rabbit anti-mouse IgG (P260, Dako A S, Denmark). The plates were developed by incubation with ortho-phenylene-diamine (Sigma) and the absorbance at 492 nm was evaluated.
The converse of an aspect of this experiment was also performed. That is, various dilutions of support-bound binding partners (SEQ. ID. Nos. 5, 16, 17, 28, and 29) were contacted with 10 μg/ml of HBcAg and binding was evaluated. ID.

Experiment [8] has as its target T2, HBeAg. As to the kind of experiment: Binding of HBeAg to support-bound peptides (EIA). Particulars: antigen at concentrations as low as 0.67 μg/ml, TABLE 8.
Experiment [9] addresses T1, HBcAg. Particulars: peptide contacted with HBcAg prior to antibody.
From the text: as §2
(§3) Variations of the characterization assays described above include competitive binding assays. […] Initial experiments were conducted by contacting binding partner to HBcAg prior to introducing the antibody. […] ID. […] ID. […] ID. […] ID. […] ID. […] ID.

The target in experiment [10] is T1, HBcAg. Here is the method:
as §3
The source holds these as a separate data set.

[11] abbreviates: fusion peptide in solution 20 μg/well.
Setting [12] is: specificity exchanger 20 μg/well.

Like-named read-outs stand apart in the source and are kept apart here.

Take VKLSCKASGYIFTSHRGGPEE [SEQ. ID. No. 74]: the “gG2 mAb binding to indicated antigen on solid phase: fusion peptide” value in experiment [1] (no addition of fusion peptide in solution) is recorded as 0.884. Moreover, the “Binding of mAb specific for HSV gG2 to coated specificity exchanger (in words)” value in [1] (specificity exchanger coated onto microtiterplates) is recorded as “appreciably bound the mAb”. In experiment [2] (setting [11]), the “gG2 mAb binding to indicated antigen on solid phase: HBcAg” value was 1.462. For the same sequence, the “Binding to immobilized HBcAg allowing binding of HSV gG2 mAb (in words)” value in experiment [2] (setting [12]) is on record as “appreciably bound the immobilized HBcAg”. Moreover, the “gG2 mAb binding to indicated antigen on solid phase: HBeAg” value in experiment [3] (setting [11]) is reported as 1.727. In experiment [3] (setting [12]), the “Binding to immobilized HBeAg allowing binding of HSV gG2 mAb (in words)” value was “appreciably bound the immobilized HBeAg”. Also, in experiment [4] (HSV mAb and specificity exchanger at equimolar ratios), the “Complement binding of mAb-specificity exchanger-HBcAg complex (in words)” value was “able to bind complement”. The “Ability to inhibit binding of mAb 4-2 to HBcAg (in words)” value in experiment [4] (complement binding assay) is “appreciably inhibited the binding of mAb 4-2 to HBcAg”. Besides, the “Ability to inhibit binding of mAb 9C8 to HBcAg (in words)” value in [4] (complement binding assay) is recorded as “unable to compete away bound mAb 9C8”. In addition, the “Fold change in serum HBeAg levels as determined by EIA in HBeAg-Tg mice” value in [5] (day 0 from injection) is given as 1; in experiment [5] (day 1 from injection), 1.5; in experiment [5] (day 3 from injection) it was 2.3; in experiment [5] (day 6 from injection), 2.3; in experiment [5] (day 9 from injection), 3.3. Besides, the “Inhibition of B cell mediated antigen presentation of HBcAg to specific CD4+ T cells (in words)” value in experiment [6] is “inhibited B cell mediated antigen presentation”. The “cpm ([3H] thymidine incorporation, T cell proliferation)” value in [6] (T + B cells, 20 μg HBcAg preincubated with inhibitor, positive control 573, background 110) came out at 345 cpm. Also, the “% inhibition of APC” value in [6] (T + B cells, 20 μg HBcAg, calculated from cpm versus positive control and background proliferation) is recorded as 49%.
For the sequence “VKPGASVKLSCKASGYIFTS (Synthetically prepared amino acid sequence) [Peptide 2]”, the “Binding of 10 μg/ml HBcAg to dilutions of support-bound peptide (in words)” value in experiment [7] (at low concentrations, TABLE 9) is on record as “appreciable binding at low concentrations”. The “Binding to HBcAg (in words)” value is “high affinity” in experiment [7] (TABLE 7) and “appreciable binding” in experiment [7] (antigen at concentrations as low as 0.67 μg/ml, TABLE 8). Also, in experiment [8], the “Binding to HBeAg (in words)” value is on record as “appreciable binding”. The “Inhibition of mAb 4-2 binding to HBcAg (in words)” value is reported as “appreciably reduced binding of mAb 4-2” in experiment [9] (concentrations as low as 50 μg/ml), “effectively reduced binding of the antibody” in experiment [9] (concentrations as low as 100 μg/ml) and “able to inhibit binding of mAb 4-2” in experiment [9] (peptide 200 μg/ml). Besides, the “Competition with mAb 4-2 for binding to HBcAg (in words)” value is listed as “effectively competed with mAb 4-2” in experiment [10] (peptide 100 μg/ml in the presence of mAb 4-2) and “significantly inhibited” in experiment [10] (peptide 200 μg/ml in the presence of mAb 4-2). Also, the “Lowest peptide concentration that prevented binding of mAb 4-2” value in experiment [10] (peptide in the presence of mAb 4-2) was determined as 6.25 µg/mL.
